Like-named read-outs stand apart in the source and are kept apart here.
How the values were obtained:
[1] = tested on: inhibition of conditioned avoidance response induced by reserpine in rats; test: Inhibition of conditioned avoidance response induced by reserpine in rats; assay type: in vivo, Std-Wistar male rats
Method: Effect of the test samples on the inhibition of conditioned avoidance response induced by reserpine in rats
Std-Wistar male rats (8 to 9 week age) weighing of 270 to 300 g were fed under the conditions of 23±2° C., 60±10% R.H. and artificial lighting from 7 AM to 7 PM for a week, and then subjected to the test.
The test was carried out by using a shuttle box. The shuttle box used herein was a rectangular box, which was equipped with a buzzer for conditioned stimulus at the upper part and grids of 2 mm in diameter, for non-conditioned stimulus, at intervals of 1 cm on the floor, and divided into two equal sized compartments by a hurdle of 5 cm in height.
The schedule for inducing the conditioned avoidance response was controlled by a computer, and all the observed results of avoidance or escape response were recorded automatically.
The avoidance condition was carried out as follows:
After the conditioned stimulus of the buzzer with sound signal for 5 seconds, the non-conditioned stimulus of the foot shock was given for 5 seconds to rats. Each stimulus was stopped immediately, if the rat jumped over the hurdle to the other compartment during the conditioned or non-conditioned stimulus.
The above-mentioned rats were put on the trials for 25 times. Then the rats were given reserpine (1 mg/kg, intraperitoneally). The rats were tested for 15 times at the time of 18 to 20 hours after the reserpine administration, and then they were divided into several groups ([…]).
The test sample was dissolved in distilled water and administered orally to each group at 24 to 26 hours after the reserpine administration. For reference, distilled water as control sample, and amitriptyline and amantadine as test drugs were used.
At one hour after the test sample administration, the rats were put on the trials for 25 times and the conditioned avoidance responce was compared between the control group (distilled water administration), the test compound-administered group and the test drug-administered groups.

[2] = tested on: depletion of dopamine induced by MPTP in mice whole brain; test: animal or person; assay type: in vivo, SlC: ddy strain male mice; details: Mus musculus, po, 168 h, MPTP 50 mg/kg s.c., read-out: Percentage of the amount of dopamine in the treated group against the amount of dopamine in the non-treated group; for response vs control in vivo at 10 mg/kg: 10 mg/kg oral

In the case of `CC(C)CC(N(C)C)C1(c2ccc(Cl)cc2)CCC1.Cl` (stereo not drawn) [Test compound, N,N-dimethyl-1-[1-(4-chlorophenyl)cyclobutyl]3-methylbutylamine hydrochloride], the “Conditioned avoidance response 1 hour after administration of the test sample” value ([1]; 10 mg/kg oral, reserpine 1 mg/kg, control 2) is reported as 82%, the “Conditioned avoidance response before administration of reserpine” value ([1]; baseline before test sample, 10 mg/kg group) is reported as 90% and the “Conditioned avoidance response 18 to 20 hours after administration of reserpine” value ([1]; reserpine 1 mg/kg i.p., before test sample, 10 mg/kg group) is reported as 2%. The response vs control in vivo at 10 mg/kg ([2]; Experiment I, control 71 ± 11, *P < 0.05, **P < 0.01) was 83 ± 12%, the response vs control in vivo at 30 mg/kg ([2]; Experiment I, 30 mg/kg oral, control 71 ± 11, *P < 0.05, **P < 0.01) was 85 ± 6% and the response vs control in vivo at 10 mg/kg ([2]; Experiment II, control 88 ± 20, *P < 0.05) was 111 ± 8%.
